In ChEMBL document CHEMBL6121046, “Discovery of Novel Hydrazide-Based HDAC3 Inhibitors as Epigenetic Immunomodulators for Cancer Immunotherapy” (J Med Chem, 2025):
The source made the active and inactive calls. The rule behind the calls is not given here.

How the values were obtained:
MC-38 [1] = experiment: Induction of mitochondrial membrane damage in mouse MC38 cells assessed as decrease in JC-1 aggregation by measuring red fluorescence at 2 uM measured after 48 hrs (reference value: 96.70%); assay type: functional; design: scale not given: the % may be the effect or the level left
[2] = Clearance in Sprague-Dawley rat at 20 mg/kg, po measured upto 12 hrs by LC-MS/MS analysis; assay type: ADME, organism-based; conditions: in vivo
Mus musculus [3] = experiment: Immunomodulatory effect in C57BL/6 mouse allografted mouse MC38 cells assessed as increase in tumor infiltrating lymphocytes by measuring increase in […] in mouse spleen at 50 mg/kg, po treated 5 days after cell inoculation 19 th day by flow cytometry analysis (reference value: 13.6%); assay type: functional; conditions: time 15 day
MC-38 [4] = experiment: Induction of PD-L1 expression in mouse MC38 cells measured after 24 hrs incubation by immunofluorescence staining analysis; assay type: functional, cell-based; conditions: dose 1-4 µM
MC-38 [5] = experiment: Induction of mitochondrial membrane damage in mouse MC38 cells assessed as increase in JC-1 monomers by measuring green fluorescence at 2 uM measured after 48 hrs (reference value: 3.13%); assay type: functional
MC-38 [6] = experiment: Induction of mitochondrial membrane damage in mouse MC38 cells assessed as increase in JC-1 monomers by measuring green fluorescence at 4 uM measured after 48 hrs (reference value: 3.13%); assay type: functional
Mus musculus [7] = experiment: Immunomodulatory effect in C57BL/6 mouse allografted mouse MC38 cells assessed as increase in tumor infiltrating lymphocytes by measuring increase in CD4+ T helper cells in mouse blood at 50 mg/kg, po treated 5 days after cell inoculation 19 th day by flow cytometry analysis (reference value: 0.27%); assay type: functional; conditions: time 15 day
Mus musculus [8] = experiment: Induction of acetylated H3 level in tumor in C57BL/6 mouse allografted with mouse MC38 cells in presence of NP19 PD-L1 inhibitor at 50 mg/kg, po treated 5 days after cell inoculation 19 th day by immunofluorescence analysis; assay type: functional, organism-based; conditions: time 15.0 day
MC-38 [9] = experiment: Induction of mitochondrial membrane damage in mouse MC38 cells assessed as increase in JC-1 monomers by measuring green fluorescence at 1 uM measured after 48 hrs (reference value: 3.13%); assay type: functional
[10] = Toxicity in C57BL/6 mouse allografted with mouse MC38 cells assessed as aspartate aminotransferase (AST) level in serum at 50 mg/kg, po treated 5 days after cell inoculation 19 th day; assay type: organism-based; conditions: in vivo, 360 h, time 15 day
Mus musculus [11] = experiment: Immunomodulatory effect in C57BL/6 mouse allografted mouse MC38 cells assessed as increase in tumor infiltrating lymphocytes by measuring increase in CD4+ T helper cells in tumor in presence of NP19 PD-L1 inhibitor at 50 mg/kg, po treated 5 days after cell inoculation 19 th day by flow cytometry analysis (reference value: 2.57%); assay type: functional; conditions: time 15 day
MC-38 [12] = experiment: In vivo antitumor activity against mouse MC38 cells allografted in C57BL/6 mouse assessed as decrease in […] positive cells in tumor at 50 mg/kg, po treated 5 days after cell inoculation 19 th day by immunofluorescence analysis; assay type: functional, organism-based; conditions: time 15.0 day
MC-38 [13] = experiment: In vivo antitumor activity against mouse MC38 cells allografted in C57BL/6 mouse assessed as apoptosis in tumor in presence of NP19 PD-L1 inhibitor at 50 mg/kg, po treated 5 days after cell inoculation 19 th day relative to control; assay type: functional, organism-based; conditions: time 15.0 day
MC-38 [14] = experiment: In vivo antitumor activity against mouse MC38 cells allografted in C57BL/6 mouse assessed as increase in Tunel-positive cells in tumor in presence of NP19 PD-L1 inhibitor at 50 mg/kg, po treated 5 days after cell inoculation 19 th day by immunofluorescence analysis; assay type: functional, organism-based; conditions: time 15.0 day
[15] = Oral bioavailability in Sprague-Dawley rat at 20 mg/kg measured upto 12 hrs by LC-MS/MS analysis; assay type: ADME, organism-based; conditions: in vivo
Mus musculus [16] = experiment: Immunomodulatory effect in C57BL/6 mouse allografted mouse MC38 cells assessed as increase in tumor infiltrating lymphocytes by measuring increase in […] in mouse blood in presence of NP19 PD-L1 inhibitor at 50 mg/kg, po treated 5 days after cell inoculation 19 th day by flow cytometry analysis (reference value: 0.35%); assay type: functional; conditions: time 15 day
MC-38 [17] = experiment: Induction of PD-L1 expression in mouse MC38 cells in presence of JQ-1 BRD4 inhibitor at 4 uM measured after 24 hrs incubation by Western blot analysis; assay type: functional, cell-based
MC-38 [18] = experiment: In vivo antitumor activity against mouse MC38 cells allografted in C57BL/6 mouse assessed as tumor growth inhibition at 50 mg/kg, po treated 5 days after cell inoculation 19 th day relative to control; assay type: functional; conditions: MC-38, 360 h, time 15 day, read-out: TGI
MC-38 [19] = experiment: In vivo antitumor activity against MC38 cells allografted in C57BL/6 mouse assessed as tumor growth inhibition in presence of NP19 PD-L1 inhibitor at 50 mg/kg, po treated 5 days after cell inoculation 19 th day relative to control; assay type: functional; conditions: MC-38, 360 h, time 15 day, read-out: TGI
[20] = Toxicity in C57BL/6 mouse allografted with mouse MC38 cells assessed as alkaline phosphatase (AKP) level in serum at 50 mg/kg, po treated 5 days after cell inoculation 19 th day; assay type: organism-based; conditions: in vivo, 360 h, time 15 day
[21] = Toxicity in C57BL/6 mouse allografted with mouse MC38 cells assessed as body weight loss at 50 mg/kg, po treated 5 days after cell inoculation 19 th day; assay type: organism-based; conditions: in vivo, 360 h, time 15 day
[22] = Toxicity in C57BL/6 mouse allografted with mouse MC38 cells assessed as alanine amino transferase (ALT) level in serum at 50 mg/kg, po treated 5 days after cell inoculation 19 th day; assay type: organism-based; conditions: in vivo, 360 h, time 15 day
MC-38 [23] = experiment: Induction of mitochondrial membrane damage in mouse MC38 cells assessed as increase in JC-1 monomers by measuring green fluorescence at 8 uM measured after 48 hrs (reference value: 3.13%); assay type: functional
[24] = Acute toxicity in C57 mouse assessed as body weight change; conditions: in vivo
Mus musculus [25] = experiment: Immunomodulatory effect in C57BL/6 mouse allografted mouse MC38 cells assessed as increase in tumor infiltrating lymphocytes by measuring increase in CD4+ T helper cells in mouse lymph nodes at 50 mg/kg, po treated 5 days after cell inoculation 19 th day by flow cytometry analysis (reference value: 15.5%); assay type: functional; conditions: time 15 day
[26] = Volume of distribution at steady state in Sprague-Dawley rat at 20 mg/kg, iv measured upto 12 hrs by LC-MS/MS analysis; assay type: ADME, organism-based; conditions: in vivo, read-out: Vdss
[27] = Half life in Sprague-Dawley rat at 20 mg/kg, po measured upto 12 hrs by LC-MS/MS analysis; assay type: ADME, organism-based; conditions: in vivo
Mus musculus [28] = experiment: Immunomodulatory effect in C57BL/6 mouse allografted mouse MC38 cells assessed as increase in tumor infiltrating lymphocytes by measuring increase in CD4+ T helper cells in mouse spleen in presence of NP19 PD-L1 inhibitor at 50 mg/kg, po treated 5 days after cell inoculation 19 th day by flow cytometry analysis (reference value: 10.8%); assay type: functional; conditions: time 15 day
MC-38 [29] = experiment: In vivo antitumor activity against mouse MC38 cells allografted in C57BL/6 mouse assessed as increase in Tunel-positive cells in tumor at 50 mg/kg, po treated 5 days after cell inoculation 19 th day by immunofluorescence analysis; assay type: functional, organism-based; conditions: time 15.0 day
[30] = Cmax in Sprague-Dawley rat at 20 mg/kg, iv measured upto 12 hrs by LC-MS/MS analysis; assay type: ADME, organism-based; conditions: in vivo

For `CCCNNC(=O)c1ccc(CNC(=O)c2cnc(-c3ccc4occc4c3)[nH]2)cc1`, the Activity (MC-38 [1]) was 91.43%, the CL/F [2] was 259 mL/min/kg and the Activity (Mus musculus [3]) was 14.1%. The Activity (MC-38 [4]) was “Dose-dependent-effect”, the Activity (MC-38 [5]) was 8% and the Activity (MC-38 [6]) was 27.53%. The Activity (Mus musculus [7]) was 0.84%, the Activity (Mus musculus [8]) was “Active” and the Activity (MC-38 [9]) was 6.34%. The Activity [10] was “Non-toxic”, the Activity (Mus musculus [11]) was 3.11% and the Activity (MC-38 [12]) was “Active”. The Activity (MC-38 [13]) was “Active”, the Activity (MC-38 [14]) was “Active” and the F [15] was 11.5%. The Activity (Mus musculus [16]) was 0.83%, the Activity (MC-38 [17]) was “Active” and the inhibition in vivo at 50 mg/kg (MC-38 [18]) was 63%. The inhibition in vivo at 50 mg/kg (MC-38 [19]) was 80%, the Activity [20] was “Non-toxic” and the Activity [21] was “Non-toxic”. The Activity [22] was “Non-toxic”, the Activity (MC-38 [23]) was 28.37% and the LD50 [24] was greater than 200 mg/kg. It also gave an Activity (Mus musculus [25]) of 20.3%, a Vd [26] of 2.35 L/kg and a half-life [27] of 188 min. For the same molecule, the Activity (Mus musculus [28]) was 11.9%, the Activity (MC-38 [29]) was “Active” and the Cmax [30] was 1210 ng/mL.
